One may read the IC50 as the midpoint of a concentration-inhibition curve.

Where a name gives a salt, the structure may show the parent alone.

One experiment deals with T1, recombinant human baculovirus-expressed GST-tagged FASN (Homo sapiens, UniProt P49327).
T1 construct: GST
T1 sequence (P49327 whole entry): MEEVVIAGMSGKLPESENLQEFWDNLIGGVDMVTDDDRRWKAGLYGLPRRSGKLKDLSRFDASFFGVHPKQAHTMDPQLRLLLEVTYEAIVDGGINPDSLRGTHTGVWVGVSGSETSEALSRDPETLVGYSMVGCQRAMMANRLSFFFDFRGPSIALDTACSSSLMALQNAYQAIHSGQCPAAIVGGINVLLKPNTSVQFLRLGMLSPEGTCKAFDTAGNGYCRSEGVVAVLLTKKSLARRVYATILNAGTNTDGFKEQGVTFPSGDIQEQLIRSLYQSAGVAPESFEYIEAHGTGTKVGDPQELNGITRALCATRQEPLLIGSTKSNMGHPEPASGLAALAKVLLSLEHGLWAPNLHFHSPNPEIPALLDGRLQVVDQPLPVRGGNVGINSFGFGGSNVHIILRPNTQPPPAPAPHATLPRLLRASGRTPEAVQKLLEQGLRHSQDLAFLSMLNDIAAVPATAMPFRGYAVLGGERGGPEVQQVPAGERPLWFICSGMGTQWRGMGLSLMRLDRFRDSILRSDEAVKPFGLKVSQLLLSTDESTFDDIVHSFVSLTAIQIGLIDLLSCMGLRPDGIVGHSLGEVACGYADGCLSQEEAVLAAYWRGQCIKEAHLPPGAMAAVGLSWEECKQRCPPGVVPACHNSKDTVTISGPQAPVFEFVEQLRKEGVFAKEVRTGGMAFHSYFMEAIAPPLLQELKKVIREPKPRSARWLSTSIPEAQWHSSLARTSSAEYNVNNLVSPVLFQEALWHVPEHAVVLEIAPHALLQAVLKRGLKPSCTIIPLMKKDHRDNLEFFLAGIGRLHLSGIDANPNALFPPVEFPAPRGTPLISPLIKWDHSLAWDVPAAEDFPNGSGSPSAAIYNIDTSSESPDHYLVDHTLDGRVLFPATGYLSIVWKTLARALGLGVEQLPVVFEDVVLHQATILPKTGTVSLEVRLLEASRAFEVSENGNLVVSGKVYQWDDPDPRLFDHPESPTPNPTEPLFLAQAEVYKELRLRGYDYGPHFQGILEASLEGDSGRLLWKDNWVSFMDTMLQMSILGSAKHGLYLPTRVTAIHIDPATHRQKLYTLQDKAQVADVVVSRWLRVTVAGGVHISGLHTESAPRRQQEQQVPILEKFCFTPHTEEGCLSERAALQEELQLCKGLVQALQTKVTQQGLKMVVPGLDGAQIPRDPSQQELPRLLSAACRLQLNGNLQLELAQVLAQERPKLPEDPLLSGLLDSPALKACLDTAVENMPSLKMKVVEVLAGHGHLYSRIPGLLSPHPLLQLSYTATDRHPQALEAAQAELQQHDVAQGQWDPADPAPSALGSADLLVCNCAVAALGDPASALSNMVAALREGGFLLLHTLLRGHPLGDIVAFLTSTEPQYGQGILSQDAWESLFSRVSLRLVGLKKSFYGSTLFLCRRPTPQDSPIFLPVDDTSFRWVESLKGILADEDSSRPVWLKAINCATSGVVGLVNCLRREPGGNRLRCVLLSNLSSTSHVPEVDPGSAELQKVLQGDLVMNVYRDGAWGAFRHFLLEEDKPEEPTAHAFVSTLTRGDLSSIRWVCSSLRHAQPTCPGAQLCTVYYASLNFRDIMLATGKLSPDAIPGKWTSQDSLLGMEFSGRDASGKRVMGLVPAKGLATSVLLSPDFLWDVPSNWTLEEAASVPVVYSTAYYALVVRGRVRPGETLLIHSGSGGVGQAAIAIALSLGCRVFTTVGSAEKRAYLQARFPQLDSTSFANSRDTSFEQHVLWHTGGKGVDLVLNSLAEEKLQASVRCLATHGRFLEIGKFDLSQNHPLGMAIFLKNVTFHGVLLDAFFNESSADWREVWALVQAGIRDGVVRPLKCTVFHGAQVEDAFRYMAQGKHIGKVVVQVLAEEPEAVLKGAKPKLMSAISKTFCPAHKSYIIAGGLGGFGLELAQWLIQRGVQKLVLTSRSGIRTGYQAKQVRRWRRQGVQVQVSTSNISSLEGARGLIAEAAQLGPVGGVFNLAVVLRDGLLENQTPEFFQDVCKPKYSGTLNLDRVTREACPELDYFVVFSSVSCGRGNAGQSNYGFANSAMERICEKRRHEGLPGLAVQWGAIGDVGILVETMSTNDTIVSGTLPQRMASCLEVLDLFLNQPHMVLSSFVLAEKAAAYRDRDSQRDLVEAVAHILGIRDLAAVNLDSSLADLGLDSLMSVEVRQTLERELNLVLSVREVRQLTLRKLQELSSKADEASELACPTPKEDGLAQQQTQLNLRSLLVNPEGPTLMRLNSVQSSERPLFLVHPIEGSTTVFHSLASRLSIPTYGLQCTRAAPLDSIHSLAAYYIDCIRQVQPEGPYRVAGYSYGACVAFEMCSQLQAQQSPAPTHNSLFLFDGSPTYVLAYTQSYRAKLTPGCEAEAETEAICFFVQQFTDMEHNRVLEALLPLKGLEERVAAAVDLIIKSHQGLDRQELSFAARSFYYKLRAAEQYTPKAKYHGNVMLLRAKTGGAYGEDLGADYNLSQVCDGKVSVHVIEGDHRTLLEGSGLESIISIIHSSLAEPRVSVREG
Put plainly: biochemical.
Conditions: not given
`CCC(=O)N1CCC2(CC1)OCc1cc(-c3ccc4c(C)nccc4c3)ccc1O2` [Example 21, 1-[6-(1-Methyl-6-isoquinolyl)spiro[4H-1,3-benzodioxine-2,4′-piperidine]-1′-yl]propan-1-one]: the IC50 is 1 to 99 nM.
Consider `Cc1nccc2cc(-c3ccc4c(c3)COC3(CCN(C(=O)C5CC5)CC3)O4)ccc12` [Example 22, Cyclopropyl-[6-(1-methyl-6-isoquinolyl)spiro[4H-1,3-benzodioxine-2,4′-piperidine]-1′-yl]methanone], for which the IC50 was in the range of 1 to 99 nM.
Regarding `Cc1nccc2cc(-c3ccc4c(c3)COC3(CCN(C(=O)[C@H]5CCCO5)CC3)O4)ccc12` [Example 23, [6-(1-Methyl-6-isoquinolyl)spiro[4H-1,3-benzodioxine-2,4′-piperidine]-1′-yl]-[(2R)-tetrahydrofuran-2-yl]methanone], the half-maximal inhibitory concentration (IC50) was in the range of 1 to 99 nM.
Still for that read-out and setting: the value for `CCOC(=O)N1CCC2(CC1)OCc1cc(-c3ccc4cccnc4c3)ccc1O2` [Example 30, Ethyl 6-(7-quinolyl)spiro[4H-1,3-benzodioxine-2,4′-piperidine]-1′-carboxylate] was 1 to 99 nM; that for `CC(C)C(=O)N1CCC2(CC1)OCc1cc(-c3ccc4cccnc4c3)ccc1O2` [Example 31, 2-Methyl-1-[6-(7-quinolyl)spiro[4H-1,3-benzodioxine-2,4′-piperidine]-1′-yl]propan-1-one] was 1 to 99 nM; that for `O=C(C1CC1)N1CCC2(CC1)OCc1cc(-c3ccc4cccnc4c3)ccc1O2` [Example 32, Cyclopropyl-[6-(7-quinolyl)spiro[4H-1,3-benzodioxine-2,4′-piperidine]-1′-yl]methanone] was 1 to 99 nM.
Still for that read-out and setting: the value for `CCC(=O)N1CCC2(CC1)OCc1cc(-c3cnc4ccccc4c3)ccc1O2` [Example 33, 1-[6-(3-Quinolyl)spiro[4H-1,3-benzodioxine-2,4′-piperidine]-1′-yl]propan-1-one] was 1 to 99 nM; that for `CC(C)C(=O)N1CCC2(CC1)OCc1cc(-c3cnc4ccccc4c3)ccc1O2` [Example 34, 2-Methyl-1-[6-(3-quinolyl)spiro[4H-1,3-benzodioxine-2,4′-piperidine]-1′-yl]propan-1-one] was 1 to 99 nM; that for `CCOC(=O)N1CCC2(CC1)OCc1cc(-c3cnc4cccnc4c3)ccc1O2` [Example 35, Ethyl 6-(1,5-naphthyridin-3-yl)spiro[4H-1,3-benzodioxine-2,4′-piperidine]-1′-carboxylate] was 1000 to 10000 nM.
On the same count and under the same terms, the value for `CCC(=O)N1CCC2(CC1)OCc1cc(-c3cnc4cccnc4c3)ccc1O2` [Example 36, 1-[6-(1,5-Naphthyridin-3-yl)spiro[4H-1,3-benzodioxine-2,4′-piperidine]-1′-yl]propan-1-one] was 1000 to 10000 nM; that for `O=C(C1CC1)N1CCC2(CC1)OCc1cc(-c3cnc4cccnc4c3)ccc1O2` [Example 37, Cyclopropyl-[6-(1,5-naphthyridin-3-yl)spiro[4H-1,3-benzodioxine-2,4′-piperidine]-1′-yl]methanone] was 1000 to 10000 nM.

The same experiment, now with this note: 5 nM FASN, 150 μM NADPH, 10 μM acetyl-CoA, 25 μM malonyl-CoA, 90 minutes incubation; read-out: IC50 data for Compounds of Formula I, Activity.
Regarding `Cc1nccc2cc(-c3ccc4c(c3)CCC3(CCN(C(=O)[C@H]5CCCO5)CC3)O4)ccc12` [Example 1, [6-(1-Methyl-6-isoquinolyl)spiro[chromane-2,4′-piperidine]-1′-yl]-[(2R)-tetrahydrofuran-2-yl]methanone, HCl], the IC50 was 1 to 99 nM.
Take `CCC(=O)N1CCC2(CCc3cc(-c4cnc5ccccc5c4C)ccc3O2)CC1` [Example 2, 1-[6-(4-Methyl-3-quinolyl)spiro[chromane-2,4′-piperidine]-1′-yl]propan-1-one, HCl]: the IC50 was 1 to 99 nM.
In the case of `Cc1c(-c2ccc3c(c2)CCC2(CCN(C(=O)C4CC4)CC2)O3)cnc2ccccc12` [Example 3, Cyclopropyl-[6-(4-methyl-3-quinolyl)spiro[chromane-2,4′-piperidine]-1′-yl]-methanone HCl], the IC50 lay within 1 to 99 nM.
Same read-out and setting: the value for `Cc1c(-c2ccc3c(c2)CCC2(CCN(C(=O)[C@H]4CCCO4)CC2)O3)cnc2ccccc12` [Example 4, [6-(4-Methyl-3-quinolyl)spiro[chromane-2,4′-piperidine]-1′-yl]-[(2R)-tetrahydrofuran-2-yl]methanone, HCl] was 1 to 99 nM.
The same measure, in the same setting: the value for `O=C([C@H]1CCCO1)N1CCC2(CCc3cc(-c4ccc5c(C6CC6)nccc5c4)ccc3O2)CC1` [Example 5, [6-(1-Cyclopropyl-6-isoquinolyl)spiro[chromane-2,4′-piperidine]-1′-yl]-[(2R)-tetrahydrofuran-2-yl]methanone] was 1 to 99 nM; that for `CCC(=O)N1CCC2(CCc3cc(-c4ccc5cccnc5c4C)ccc3O2)CC1` [Example 6, 1-[6-(8-Methyl-7-quinolyl)spiro[chromane-2,4′-piperidine]-1′-yl]propan-1-one] was 1 to 99 nM; that for `Cc1c(-c2ccc3c(c2)CCC2(CCN(C(=O)C4CC4)CC2)O3)ccc2cccnc12` [Example 7, Cyclopropyl-[6-(8-methyl-7-quinolyl)spiro[chromane-2,4′-piperidine]-1′-yl]methanone, HCl] was 1 to 99 nM.
In the case of `Cc1c(-c2ccc3c(c2)CCC2(CCN(C(=O)[C@H]4CCCO4)CC2)O3)ccc2cccnc12` [Example 8, [6-(8-Methyl-7-quinolyl)spiro[chromane-2,4′-piperidine]-1′-yl]-[(2R)-tetrahydrofuran-2-yl]methanone, HCl], the IC50 lay within 1 to 99 nM.
As for `CCC(=O)N1CCC2(CCc3cc(-c4ccc5cccnc5c4Cl)ccc3O2)CC1` [Example 9, 1-[6-(8-chloro-7-quinolyl)spiro[chromane-2,4′-piperidine]-1′-yl]propan-1-one], the IC50 was in the range of 1 to 99 nM.
On the same count and under the same terms, the value for `O=C(C1CC1)N1CCC2(CCc3cc(-c4ccc5cccnc5c4Cl)ccc3O2)CC1` [Example 10, [6-(8-Chloro-7-quinolyl)spiro[chromane-2,4′-piperidine]-1′-yl]-cyclopropyl-methanone, HCl] was 1 to 99 nM; that for `O=C([C@H]1CCCO1)N1CCC2(CCc3cc(-c4ccc5cccnc5c4Cl)ccc3O2)CC1` [Example 11, [6-(8-Chloro-7-quinolyl)spiro[chromane-2,4′-piperidine]-1′-yl]-[(2R)-tetrahydrofuran-2-yl]methanone, HCl] was 1 to 99 nM; that for `CCC(=O)N1CCC2(CCc3cc(-c4cnc5c(C)cccc5c4)ccc3O2)CC1` [Example 12, 1-[6-(8-Methyl-3-quinolyl)spiro[chromane-2,4′-piperidine]-1′-yl]propan-1-one] was 1 to 99 nM.
On to `Cc1cccc2cc(-c3ccc4c(c3)CCC3(CCN(C(=O)C5CC5)CC3)O4)cnc12` [Example 13, Cyclopropyl-[6-(8-methyl-3-quinolyl)spiro[chromane-2,4′-piperidine]-1′-yl]-methanone, HCl], for which the half-maximal inhibitory concentration (IC50) was in the range of 100 to 999 nM.
As to `Cc1cccc2cc(-c3ccc4c(c3)CCC3(CCN(C(=O)[C@H]5CCCO5)CC3)O4)cnc12` [Example 14, [6-(8-Methyl-3-quinolyl)spiro[chromane-2,4′-piperidine]-1′-yl]-[(2R)-tetrahydrofuran-2-yl]methanone, HCl], the IC50 was in the range of 1 to 99 nM.
The same measure, in the same setting: the value for `COc1c(-c2ccc3c(c2)CCC2(CCN(C(=O)C4CC4)CC2)O3)ccc2cccnc12` [Example 15, Cyclopropyl-[6-(8-methoxy-7-quinolyl)spiro[chromane-2,4′-piperidine]-1′-yl]-methanone, HCl] was 1 to 99 nM; that for `COc1c(-c2ccc3c(c2)CCC2(CCN(C(=O)[C@H]4CCCO4)CC2)O3)ccc2cccnc12` [Example 16, [6-(8-Methoxy-7-quinolyl)spiro[chromane-2,4′-piperidine]-1′-yl]-[(2R)-tetra-hydrofuran-2-yl]methanone HCl] was 1 to 99 nM.
Still for that read-out and setting: the value for `CCC(=O)N1CCC2(CCc3cc(-c4cc(C)c5ncccc5c4)ccc3O2)CC1` [Example 17, 1-[6-(8-Methyl-6-quinolyl)spiro[chromane-2,4′-piperidine]-1′-yl]propan-1-one, HCl] was 100 to 999 nM.
For the compound `Cc1cc(-c2ccc3c(c2)CCC2(CCN(C(=O)C4CC4)CC2)O3)cc2cccnc12` [Example 18, Cyclopropyl-[6-(8-methyl-6-quinolyl)spiro[chromane-2,4′-piperidine]-1′-yl]methanone HCl], the IC50 is 100 to 999 nM.
For `CCC(=O)N1CCC2(CCc3cc(-c4ccc5cccnc5c4OC)ccc3O2)CC1` [Example 19, 1-[6-(8-Methoxy-7-quinolyl)spiro[chromane-2,4′-piperidine]-1′-yl]propan-1-one], the IC50 is 1 to 99 nM.
Regarding `Cc1cc(-c2ccc3c(c2)CCC2(CCN(C(=O)[C@H]4CCCO4)CC2)O3)cc2cccnc12` [Example 20, [6-(8-Methyl-6-quinolyl)spiro[chromane-2,4′-piperidine]-1′-yl]-[(2R)-tetrahydrofuran-2-yl]methanone], the IC50 lay in the range of 1 to 99 nM.
For `CCC(=O)N1CCC2(CCc3cc(-c4ccc5c(C)nccc5c4)ccc3O2)CC1` [Example 24, 1-[6-(1-Methyl-6-isoquinolyl)spiro[chromane-2,4′-piperidine]-1′-yl]propan-1-one], the IC50 is 1 to 99 nM.
The same measure, in the same setting: the value for `Cc1nccc2cc(-c3ccc4c(c3)CCC3(CCN(C(=O)C5CC5)CC3)O4)ccc12` [Example 25, Cyclopropyl-[6-(1-methyl-6-isoquinolyl)spiro[chromane-2,4′-piperidine]-1′-yl]methanone] was 100 to 999 nM; that for `CCC(=O)N1CCC2(CCc3cc(-c4ccc5nccn5c4C)ccc3O2)CC1` [Example 26, 1-[6-(5-methylimidazo[1,2-a]pyridin-6-yl)spiro[chromane-2,4′-piperidine]-1′-yl]propan-1-one] was 100 to 999 nM.
On to `Cc1c(-c2ccc3c(c2)CCC2(CCN(C(=O)C4CC4)CC2)O3)ccc2nccn12` [Example 27, Cyclopropyl-[6-(5-methylimidazo[1,2-a]pyridin-6-yl)spiro[chromane-2,4′-piperidine]-1′-yl]methanone], for which the IC50 was in the range of 100 to 999 nM.
On to `Cc1c(-c2ccc3c(c2)CCC2(CCN(C(=O)[C@H]4CCCO4)CC2)O3)ccc2nccn12` [Example 28, [6-(5-Methylimidazo[1,2-a]pyridin-6-yl)spiro[chromane-2,4′-piperidine]-1′-yl]-[(2R)-tetrahydrofuran-2-yl]methanone], for which the half-maximal inhibitory concentration (IC50) was 1 to 99 nM.

Values taken from patent US12448392B2, “Spiropiperidine derivatives” (89BIO LTD, priority 2016, dated 2025).
